Assay results: PubChem BioAssay (NCI)
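Tested at 5 concentrations; 48 h exposure; 96-well plates; endpoints linearly interpolated, else capped at highest concentration. The concentration for 50% growth inhibition is given as GI50. Definition used: TGI = concentration required for complete inhibition of growth.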

Assays:
Assay in all cases: growth of human tumour cells (NCI), 48 h
[1] = test system: OVCAR-4 ovarian
[2] = test system: HOP-92 NSCLC
[3] = test system: NCI/ADR-RES ovarian
[4] = test system: HS 578T breast
[5] = test system: COLO 205 colon
[6] = test system: NCI-H226 lung
[7] = test system: HL-60(TB) leukemia
[8] = test system: SK-MEL-2 melanoma
[9] = test system: SNB-78 CNS

SMILES	GI50 [1]	TGI [1]	GI50 [2]	TGI [2]	GI50 [3]	TGI [3]	GI50 [4]	TGI [4]	GI50 [5]	TGI [5]	GI50 [6]	TGI [6]	GI50 [7]	TGI [7]	GI50 [8]	TGI [8]	TGI [9]
CN1CCN(C(=O)[C@@]2(C)CC[C@]3(C)CC[C@]4(C)C(=CC[C@@H]5[C@@]6(C)CC[C@H](OC(=O)c7cccnc7)C(C)(C)[C@@H]6CC[C@]54C)[C@@H]3C2)CC1	1780 nM	3.59 µM	1380 nM	3.2 µM	1750 nM	3.72 µM	1450 nM	3.14 µM	1830 nM	3.94 µM	10200 nM	24 µM	1440 nM	3.36 µM	13200 nM	28.6 µM	–
Cc1cc(=O)n2c(cc3cccccc32)n1	–	> 100 µM	–	–	–	–	–	–	–	> 100 µM	–	> 100 µM	–	> 100 µM	–	> 100 µM	> 100 µM
CC1(C)C=C(N2CCN(C3=CC(C)(C)NC(C)(C)C3)CC2)CC(C)(C)N1	–	> 100 µM	–	> 100 µM	–	–	–	–	–	–	–	–	–	> 100 µM	–	–	> 100 µM
O=c1oc2ccc(I)cc2c(=O)n1-c1ccc(I)cc1F	349 nM	18.4 µM	169 nM	0.544 µM	568 nM	5.69 µM	324 nM	4.78 µM	4880 nM	17.8 µM	1470 nM	5.88 µM	564 nM	–	391 nM	2.55 µM	–
O=C(Nc1cccc(-n2ccc3c(NC(=O)c4ccccc4)nccc32)c1)c1ccc(Cl)c(Cl)c1	611 nM	2 µM	130 nM	2.12 µM	86.5 nM	0.38 µM	82.2 nM	1.31 µM	124 nM	0.517 µM	568 nM	3.65 µM	188 nM	0.977 µM	1120 nM	2.79 µM	–
CCCCNP1(NCCCC)=NP(NCCCC)(NCCCC)=NP(NCCCC)(NCCCC)=NP(NCCCC)(NCCCC)=N1	180 nM	18.1 µM	51.4 nM	0.917 µM	73300 nM	> 100 µM	1430 nM	7.71 µM	301 nM	0.848 µM	1720 nM	7.91 µM	98 nM	0.888 µM	922 nM	3.51 µM	–
CCCn1cc(/C=N\N=C2\C(=O)Nc3ccc(C)cc32)c2ccccc21	935 nM	25.6 µM	1870 nM	6.57 µM	6390 nM	89.9 µM	11300 nM	> 100 µM	1250 nM	3.06 µM	2950 nM	20.6 µM	1310 nM	4.8 µM	2420 nM	8.03 µM	–
Cn1c2ccccc2c2c(=O)n(CCCC(=O)NCCc3cnc[nH]3)c3c(-c4ccccc4)nnn3c21	10100 nM	20.5 µM	1350 nM	5.48 µM	> 50000 nM	> 50 µM	10400 nM	22.6 µM	8510 nM	19.6 µM	> 50000 nM	> 50 µM	11800 nM	28.4 µM	10300 nM	21 µM	–
CN(C)C[C@@H]1CCn2cc(c3ccccc32)C2=C(C(=O)NC2=O)c2cn(c3ccccc23)CCO1	2580 nM	> 10 µM	446 nM	6.31 µM	2580 nM	> 10 µM	1760 nM	8.88 µM	1030 nM	> 10 µM	2000 nM	> 10 µM	1600 nM	3.75 µM	2000 nM	> 10 µM	–
CCc1nc(N)nc(N)c1-c1ccc(N(C)Cc2ccccc2)c([N+](=O)[O-])c1	–	52.1 µM	–	18.7 µM	–	21.4 µM	–	72.7 µM	–	8.4 µM	–	23.2 µM	–	5.88 µM	–	20 µM	–
C#Cc1cccc(Nc2ncnc3ccc(-c4cnc(N)nc4)cc23)c1	2590 nM	14.8 µM	211 nM	3.15 µM	4090 nM	36.4 µM	1230 nM	4.06 µM	2990 nM	13.8 µM	1980 nM	12.8 µM	2590 nM	11 µM	2110 nM	5.72 µM	–
CSc1nc(SC)c2c(C)c(Br)[nH]c2n1	–	> 100 µM	–	> 100 µM	–	> 100 µM	–	> 100 µM	–	> 100 µM	–	> 100 µM	–	> 100 µM	–	> 100 µM	–
CCCCCCCCCCCCSC1=CC(=O)C=CC1=O	2170 nM	9 µM	2560 nM	12.6 µM	1650 nM	> 20.6 µM	1960 nM	21.8 µM	20900 nM	> 36.2 µM	6580 nM	19 µM	353 nM	2.43 µM	7500 nM	19.4 µM	–
CCc1c2c(nc3ccc(OC(=O)OCc4ccc(B5OC(C)(C)C(C)(C)O5)cc4)cc13)-c1cc3c(c(=O)n1C2)COC(=O)[C@]3(O)CC	210 nM	> 30.8 µM	26.9 nM	14.4 µM	27.3 nM	> 100 µM	547 nM	19.8 µM	80.4 nM	24.5 µM	11 nM	0.157 µM	12.1 nM	22.3 µM	326 nM	8.57 µM	–
CC(C)c1ccc(C(c2c(O)c3ccccc3oc2=O)c2c(O)c3ccccc3oc2=O)cc1	–	94 µM	–	21.2 µM	–	65.9 µM	–	61.8 µM	–	34.2 µM	–	42.2 µM	–	26.3 µM	–	30.8 µM	–
O=C1c2c(c3c4ccccc4n(CCCCCCN4CCOCC4)c3c3[nH]c4ccccc4c23)C(=O)N1O	4440 nM	20.7 µM	13200 nM	38.3 µM	> 69800 nM	> 100 µM	2070 nM	6.61 µM	4740 nM	21.9 µM	> 32500 nM	> 80.4 µM	2490 nM	8.22 µM	19500 nM	46 µM	–
